Test results reported in patent US20260125400A1, “TYK2 DEGRADERS AND USES THEREOF” (Kymera Therapeutics, Inc., priority 2023, published 2026).

target: T1, TYK2 (Homo sapiens, UniProt P29597); experiment: TYK2 MSD degradation in OCI-LY10 cells; type: cell-based; details: TYK2 degradation in OCI-LY10 cells, 4 to 24 hours incubation
T1 construct: Degradation of TYK2 in cells was quantitatively measured using Meso Scale Discovery (MSD) technology; endogenous in cells; host or cells: OCI-LY10
How it was run: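 Cellular TYK2 levels were measured by Meso Scale Discovery sandwich detection in RIPA lysates of OCI-LY10 cells exposed 4 to 24 hours at 37° C to nine 1:3 compound doses starting at 1 to 10 μM final; dose-response fitted by four-parameter regression.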

T1 sequence (P29597 whole entry): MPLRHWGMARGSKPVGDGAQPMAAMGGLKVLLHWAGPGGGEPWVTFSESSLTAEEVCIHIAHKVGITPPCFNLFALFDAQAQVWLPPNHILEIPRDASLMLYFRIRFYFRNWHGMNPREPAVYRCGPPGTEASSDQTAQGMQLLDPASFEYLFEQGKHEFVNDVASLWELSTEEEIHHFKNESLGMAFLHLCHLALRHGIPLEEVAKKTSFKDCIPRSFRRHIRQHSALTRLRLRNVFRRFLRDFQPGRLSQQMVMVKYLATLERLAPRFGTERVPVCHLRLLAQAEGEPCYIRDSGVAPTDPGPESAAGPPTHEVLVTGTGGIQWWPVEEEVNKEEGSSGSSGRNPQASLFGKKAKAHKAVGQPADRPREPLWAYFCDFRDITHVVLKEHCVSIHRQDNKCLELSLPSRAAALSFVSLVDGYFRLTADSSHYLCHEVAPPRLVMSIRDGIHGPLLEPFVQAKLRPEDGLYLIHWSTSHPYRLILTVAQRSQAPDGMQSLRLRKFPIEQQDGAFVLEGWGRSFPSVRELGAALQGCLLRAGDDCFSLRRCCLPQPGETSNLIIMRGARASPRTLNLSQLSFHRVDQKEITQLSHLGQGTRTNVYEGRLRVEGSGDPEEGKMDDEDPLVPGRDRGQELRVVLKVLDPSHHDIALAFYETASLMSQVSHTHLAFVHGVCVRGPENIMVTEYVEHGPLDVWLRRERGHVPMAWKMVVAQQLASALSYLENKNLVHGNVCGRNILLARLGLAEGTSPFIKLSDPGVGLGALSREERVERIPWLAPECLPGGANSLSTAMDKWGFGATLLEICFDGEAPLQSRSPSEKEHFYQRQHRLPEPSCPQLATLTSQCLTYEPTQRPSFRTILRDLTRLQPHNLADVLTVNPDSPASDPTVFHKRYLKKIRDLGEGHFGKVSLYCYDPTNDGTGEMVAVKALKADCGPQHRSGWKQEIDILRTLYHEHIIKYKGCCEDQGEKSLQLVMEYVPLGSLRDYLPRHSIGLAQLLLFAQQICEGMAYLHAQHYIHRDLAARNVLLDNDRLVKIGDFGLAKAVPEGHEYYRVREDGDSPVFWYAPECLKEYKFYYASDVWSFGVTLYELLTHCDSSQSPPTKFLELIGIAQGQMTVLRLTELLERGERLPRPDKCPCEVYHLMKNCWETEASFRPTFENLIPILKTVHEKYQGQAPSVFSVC

| Compound | TYK2 MSD OCI-LY10 Dmax % |
| --- | --- |
| CNc1cc(N2CCc3c(CN4CCC(N5CCC6(CCN(Cc7ccc(Cl)c(N8CCC(=O)NC8=O)c7)CC6)CC5)C(F)(F)C4)cccc32)nn2c(C(=O)N[C@@H]3C[C@@H]3F)cnc12 (stereo partly shown) [I-844] | B (B (90 to >75%)) |
| CNc1cc(-c2ccc(N3CCC(CN4CC5(CCN(C(=O)c6ccc(Cl)c(N7CCC(=O)NC7=O)c6)CC5(F)F)C4)CC3)cc2)nn2c(C(=O)N[C@@H]3C[C@@H]3F)cnc12 [I-882] | D (D (<50%)) |
| CNc1cc(N2CCc3c(-c4cc(CN5CCN(C(=O)c6ccc(Cl)c(N7CCC(=O)NC7=O)c6)CC5)ccn4)cccc32)nn2c(C(=O)N[C@@H]3C[C@@H]3F)cnc12 [I-78] | D (D (<50%)) |
| CNc1cc(N2CCc3c(-c4ccc(CN5CCC6(CCN(C(=O)c7ccc(Cl)c(N8CCC(=O)NC8=O)c7)CC6)C(F)(F)C5)cn4)cccc32)nn2c(C(=O)NC3CCC3)cnc12 [I-824] | B (B (90 to >75%)) |
| CNc1cc(N2CCc3c(CN4CC[C@@H](N5CCC6(CCN(C(=O)c7cc(Cl)c(Cl)c(N8CCC(=O)NC8=O)c7)CC6)CC5)C(F)(F)C4)cccc32)nn2c(C(=O)N[C@@H]3CC[C@H]3OC)cnc12 [I-1145] | A (A (>90%)) |
| CNc1cc(N2CCc3c(-c4ccc(CN5CCC6(CCN(C(=O)c7ccc(C(F)F)c(N8CCC(=O)NC8=O)c7)CC6)C(F)(F)C5)cn4)cccc32)nn2c(C(=O)N[C@@H]3C[C@@H]3F)cnc12 [I-980] | C (C (75 to 50%)) |
| CNc1cc(N2CCc3c(CN4CCC(N5CCC(C6CCN(C(=O)c7cc(C)c(Cl)c(N8CCC(=O)NC8=O)c7)CC6)CC5)C(F)(F)C4)cccc32)nn2c(C(=O)N[C@@H]3CC[C@H]3OC)cnc12 (stereo partly shown) [I-1066] | A (A (>90%)) |
| CNc1cc(N2CCc3c(-c4ccc(CN5CCC6(CCN(C(=O)c7cc(C)c(Cl)c(N8CCC(=O)NC8=O)c7)CC6)C(F)(F)C5)cn4)cccc32)nn2c(C(=O)NC3CCC3(F)F)cnc12 (stereo not shown) [I-996] | B (B (90 to >75%)) |
| CNc1cc(N2CC3(CCN(CCc4ccc5c(c4)n(C)c(=O)n5C4CCC(=O)NC4=O)CC3)c3ccccc32)nn2c(C(=O)NC3CC3)cnc12 (stereo not shown) [I-53] | D (D (<50%)) |
| CNc1cc(N2CC3(CCN(c4ccc5c(c4)n(C)c(=O)n5C4CCC(=O)NC4=O)CC3)c3ccccc32)nn2c(C(=O)NC3CC3)cnc12 (stereo not shown) [I-42] | D (D (<50%)) |
| CNc1cc(N2CCc3c(-c4ncc(CN5CC6(CCN(C(=O)c7cc(N8CCC(=O)NC8=O)c(C)c(Cl)c7F)CC6(F)F)C5)cc4F)cccc32)nn2c(C(=O)N[C@@H]3CC[C@H]3OC)cnc12 [I-1133] | A (A (>90%)) |
| CNc1cc(N2CCc3c(CN4CCC(N5CCC6(CCN(C(=O)c7cc(F)c(C)c(N8CCC(=O)NC8=O)c7)CC6)CC5)C(F)(F)C4)cccc32)nn2c(C(=O)N[C@@H]3CC[C@H]3OC)cnc12 (stereo partly shown) [I-1081] | A (A (>90%)) |
| CNc1cc(N2CCc3c(CN4CCC(N5CCN(c6ccc7c(c6)n(C)c(=O)n7C6CCC(=O)NC6=O)CC5)C(F)(F)C4)cccc32)nn2c(C(=O)NC3CC3)cnc12 (stereo not shown) [I-15] | C (C (75 to 50%)) |
| CNc1cc(N2CCc3c(-c4cc(CN5CCC6(CC5)CN(c5ccc7c(c5)n(C)c(=O)n7C5CCC(=O)NC5=O)C6)ccn4)cccc32)nn2c(C(=O)NC3CC3)cnc12 (stereo not shown) [I-21] | D (D (<50%)) |

same assay, conditions: TYK2 degradation in OCI-LY10 cells, 4 to 24 hours incubation, read-out: TYK2 MSD OCI-LY10 Rel-DC50

| Compound | DC50 |
| --- | --- |
| CNc1cc(N2CCc3c(CN4CCC(N5CCC6(CCN(Cc7ccc(Cl)c(N8CCC(=O)NC8=O)c7)CC6)CC5)C(F)(F)C4)cccc32)nn2c(C(=O)N[C@@H]3C[C@@H]3F)cnc12 (stereo partly shown) [I-844] | < 10 nM |
| CNc1cc(-c2ccc(N3CCC(CN4CC5(CCN(C(=O)c6ccc(Cl)c(N7CCC(=O)NC7=O)c6)CC5(F)F)C4)CC3)cc2)nn2c(C(=O)N[C@@H]3C[C@@H]3F)cnc12 [I-882] | > 100 nM |
| CNc1cc(N2CCc3c(-c4cc(CN5CCN(C(=O)c6ccc(Cl)c(N7CCC(=O)NC7=O)c6)CC5)ccn4)cccc32)nn2c(C(=O)N[C@@H]3C[C@@H]3F)cnc12 [I-78] | < 10 nM |
| CNc1cc(N2CCc3c(-c4ccc(CN5CCC6(CCN(C(=O)c7ccc(Cl)c(N8CCC(=O)NC8=O)c7)CC6)C(F)(F)C5)cn4)cccc32)nn2c(C(=O)NC3CCC3)cnc12 [I-824] | < 10 nM |
| CNc1cc(N2CCc3c(CN4CC[C@@H](N5CCC6(CCN(C(=O)c7cc(Cl)c(Cl)c(N8CCC(=O)NC8=O)c7)CC6)CC5)C(F)(F)C4)cccc32)nn2c(C(=O)N[C@@H]3CC[C@H]3OC)cnc12 [I-1145] | < 1 nM |
| CNc1cc(N2CCc3c(-c4ccc(CN5CCC6(CCN(C(=O)c7ccc(C(F)F)c(N8CCC(=O)NC8=O)c7)CC6)C(F)(F)C5)cn4)cccc32)nn2c(C(=O)N[C@@H]3C[C@@H]3F)cnc12 [I-980] | < 10 nM |
| CNc1cc(N2CCc3c(CN4CCC(N5CCC(C6CCN(C(=O)c7cc(C)c(Cl)c(N8CCC(=O)NC8=O)c7)CC6)CC5)C(F)(F)C4)cccc32)nn2c(C(=O)N[C@@H]3CC[C@H]3OC)cnc12 (stereo partly shown) [I-1066] | < 1 nM |
| CNc1cc(N2CCc3c(-c4ccc(CN5CCC6(CCN(C(=O)c7cc(C)c(Cl)c(N8CCC(=O)NC8=O)c7)CC6)C(F)(F)C5)cn4)cccc32)nn2c(C(=O)NC3CCC3(F)F)cnc12 (stereo not shown) [I-996] | < 10 nM |
| CNc1cc(N2CC3(CCN(CCc4ccc5c(c4)n(C)c(=O)n5C4CCC(=O)NC4=O)CC3)c3ccccc32)nn2c(C(=O)NC3CC3)cnc12 (stereo not shown) [I-53] | > 100 nM |
| CNc1cc(N2CC3(CCN(c4ccc5c(c4)n(C)c(=O)n5C4CCC(=O)NC4=O)CC3)c3ccccc32)nn2c(C(=O)NC3CC3)cnc12 (stereo not shown) [I-42] | > 100 nM |
| CNc1cc(N2CCc3c(-c4ncc(CN5CC6(CCN(C(=O)c7cc(N8CCC(=O)NC8=O)c(C)c(Cl)c7F)CC6(F)F)C5)cc4F)cccc32)nn2c(C(=O)N[C@@H]3CC[C@H]3OC)cnc12 [I-1133] | < 1 nM |
| CNc1cc(N2CCc3c(CN4CCC(N5CCC6(CCN(C(=O)c7cc(F)c(C)c(N8CCC(=O)NC8=O)c7)CC6)CC5)C(F)(F)C4)cccc32)nn2c(C(=O)N[C@@H]3CC[C@H]3OC)cnc12 (stereo partly shown) [I-1081] | < 1 nM |
| CNc1cc(N2CCc3c(CN4CCC(N5CCN(c6ccc7c(c6)n(C)c(=O)n7C6CCC(=O)NC6=O)CC5)C(F)(F)C4)cccc32)nn2c(C(=O)NC3CC3)cnc12 (stereo not shown) [I-15] | < 1 nM |
| CNc1cc(N2CCc3c(-c4cc(CN5CCC6(CC5)CN(c5ccc7c(c5)n(C)c(=O)n7C5CCC(=O)NC5=O)C6)ccn4)cccc32)nn2c(C(=O)NC3CC3)cnc12 (stereo not shown) [I-21] | < 10 nM |
